Data reported in US20220177538A1, “CO-AGONISTS AT GLP-1 AND GIP RECEPTORS SUITABLE FOR ORAL DELIVERY” (Novo Nordisk A/S, priority 2020, published 2022).
Where two headings read alike, the source gives them in different places. Starred links: 1 amine or outer side, 2 acyl side, 3 side chain; linkers in the order of their positions; H or OH if unused. Non-standard residues stand in square brackets, D forms with d. Residues, ends and D or L forms follow the SMILES beside them. Groups on a side chain read outwards from the residue. *: point of attachment. C20 diacid = O=C(O)CCCCCCCCCCCCCCCCCCC(=O)*; C18 diacid = O=C(O)CCCCCCCCCCCCCCCCC(=O)*; γGlu = O=C(O)[C@H](CCC(=O)[*:2])N[*:1]; εLys = N[C@@H](CCCCN[*:1])C(=O)[*:2]; AEEA = NCCOCCOCC(=O)O; Aib = CC(C)(N)C(=O)O

Tests used:
human GIP receptor = target: T1, human GIP receptor (Homo sapiens, UniProt P48546); test: In vitro functional potency, CRE luciferase reporter, whole BHK cells (hGIPR); assay type: cell-based; details: BHK CRE luc2P hGIPR cells
T1 construct: expressed in transfected cells; host or cells: BHK (parent line BHKTS13), clone BHK CRE luc2P hGIPR
T1 sequence (P48546 22-466): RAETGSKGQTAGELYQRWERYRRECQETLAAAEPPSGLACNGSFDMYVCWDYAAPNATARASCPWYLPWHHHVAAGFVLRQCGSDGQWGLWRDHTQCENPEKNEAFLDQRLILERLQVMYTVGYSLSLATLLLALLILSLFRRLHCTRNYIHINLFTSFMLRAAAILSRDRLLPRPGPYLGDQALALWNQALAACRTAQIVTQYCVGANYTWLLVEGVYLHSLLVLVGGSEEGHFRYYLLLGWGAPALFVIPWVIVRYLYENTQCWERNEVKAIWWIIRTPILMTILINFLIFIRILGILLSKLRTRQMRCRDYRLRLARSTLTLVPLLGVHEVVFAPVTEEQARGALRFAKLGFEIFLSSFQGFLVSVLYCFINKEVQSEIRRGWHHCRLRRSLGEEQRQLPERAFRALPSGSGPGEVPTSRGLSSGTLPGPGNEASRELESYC
Outline: (§1)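 BHK CRE luc2P cells stably expressing hGIPR or hGLP-1R were seeded at 5000 cells/well overnight. They were treated 3 h at 37° C with a 12-point, 3.5-fold compound series in buffer with or without HSA, and luciferase luminescence was read. Values come from log(agonist)-response regression, averaging at least two replicates.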

human GLP-1 receptor = human GLP-1 receptor (Homo sapiens, UniProt P43220); test: In vitro functional potency, CRE luciferase reporter, whole BHK cells (hGLP-1R); assay type: cell-based; design: expressed in transfected cells; host or cells: BHK (parent line BHKTS13), clone BHK CRE luc2P hGLP-1R; details: BHK CRE luc2P hGLP-1R cells
Outline: as §1

[1] = 0% HSA, read-out: hGIPR, CRE Luc 0% HSA EC50
[2] = hGIPR, CRE Luc 1% HSA EC50, 1% HSA
[3] = 0% HSA, read-out: hGLP-1R, CRE Luc 0% HSA EC50
[4] = hGLP-1R, CRE Luc 1% HSA EC50, 1% HSA

Chain of human GLP-1 receptor (P43220 24-463): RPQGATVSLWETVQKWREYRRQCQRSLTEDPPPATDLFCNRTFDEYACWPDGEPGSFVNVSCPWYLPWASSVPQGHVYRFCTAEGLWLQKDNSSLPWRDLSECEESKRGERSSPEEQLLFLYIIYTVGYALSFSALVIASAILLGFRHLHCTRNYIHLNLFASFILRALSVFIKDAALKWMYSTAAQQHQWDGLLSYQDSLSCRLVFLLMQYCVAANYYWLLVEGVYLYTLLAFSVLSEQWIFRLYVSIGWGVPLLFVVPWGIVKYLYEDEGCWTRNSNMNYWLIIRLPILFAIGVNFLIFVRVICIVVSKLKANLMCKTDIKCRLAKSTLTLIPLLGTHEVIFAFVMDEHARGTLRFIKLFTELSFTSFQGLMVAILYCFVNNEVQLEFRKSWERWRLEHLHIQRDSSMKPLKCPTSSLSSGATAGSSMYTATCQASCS

Row | SMILES | EC50 (human GIP receptor; [1]) [nM] | EC50 (human GIP receptor; [2]) [nM] | EC50 (human GLP-1 receptor; [3]) [nM] | EC50 (human GLP-1 receptor; [4]) [nM]
1 | CC[C@H](C)[C@H](NC(=O)[C@H](Cc1ccccc1)NC(=O)[C@H](CCC(=O)O)NC(=O)[C@H](CCCNC(=N)N)NC(=O)[C@H](C)NC(=O)[C@H](C)NC(=O)[C@H](CCC(N)=O)NC(=O)[C@H](CCC(=O)O)NC(=O)[C@H](CCC(=O)O)NC(=O)[C@H](CC(C)C)NC(=O)[C@H](CC(C)C)NC(=O)[C@@H](NC(=O)[C@H](CO)NC(=O)[C@H](Cc1ccc(O)cc1)NC(=O)[C@H](CC(=O)O)NC(=O)[C@H](CO)NC(=O)[C@@H](NC(=O)[C@H](Cc1ccccc1)NC(=O)[C@@H](NC(=O)CNC(=O)[C@H](CCC(=O)O)NC(=O)C(C)(C)NC(=O)[C@@H](N)Cc1ccc(O)cc1)[C@@H](C)O)[C@@H](C)O)[C@@H](C)CC)C(=O)N[C@@H](CCC(=O)O)C(=O)N[C@@H](Cc1c[nH]c2ccccc12)C(=O)N[C@@H](CC(C)C)C(=O)N[C@@H](CC(C)C)C(=O)N[C@@H](C)C(=O)NCC(=O)NCC(=O)N1CCC[C@H]1C(=O)N[C@@H](CO)C(=O)N[C@@H](CCCCNC(=O)COCCOCCNC(=O)COCCOCCNC(=O)CC[C@H](NC(=O)CCCCCCCCCCCCCCCCC(=O)O)C(=O)O)C(=O)NCC(=O)N[C@@H](C)C(=O)N1CCC[C@H]1C(=O)N1CCC[C@H]1C(=O)N1CCC[C@H]1C(=O)N[C@@H](CO)C(=O)O [Compound 45] (H-Y[Aib]EGTFTSDYSILLEEQAAREFIEWLLAGGPSK([AEEA-AEEA-γGlu-C18 diacid])GAPPPS-OH) | 0.0038 | 1.22 | 0.0039 | 1.58
2 | CC(C)C[C@H](NC(=O)[C@H](CC(C)C)NC(=O)[C@H](Cc1c[nH]c2ccccc12)NC(=O)[C@H](CC(N)=O)NC(=O)[C@@H](NC(=O)[C@H](Cc1ccccc1)NC(=O)[C@H](CCC(=O)O)NC(=O)[C@H](CCC(N)=O)NC(=O)[C@H](C)NC(=O)[C@H](C)NC(=O)[C@H](CCC(N)=O)NC(=O)[C@H](CCCCNC(=O)[C@@H](N)CCCCNC(=O)[C@@H](N)CCCCNC(=O)CC[C@H](NC(=O)CCCCCCCCCCCCCCCCCCC(=O)O)C(=O)O)NC(=O)[C@H](CCC(=O)O)NC(=O)[C@H](CC(C)C)NC(=O)[C@H](Cc1ccc(O)cc1)NC(=O)[C@H](Cc1ccc(O)cc1)NC(=O)[C@H](CO)NC(=O)[C@H](Cc1ccc(O)cc1)NC(=O)[C@H](CC(=O)O)NC(=O)[C@H](CO)NC(=O)[C@@H](NC(=O)[C@H](Cc1ccccc1)NC(=O)[C@@H](NC(=O)CNC(=O)[C@H](CCC(=O)O)NC(=O)C(C)(C)NC(=O)[C@@H](N)Cc1ccc(O)cc1)[C@@H](C)O)[C@@H](C)O)C(C)C)C(=O)N[C@@H](C)C(=O)NCC(=O)NCC(=O)N1CCC[C@H]1C(=O)N[C@@H](CO)C(=O)N[C@@H](CO)C(=O)NCC(=O)N[C@@H](C)C(=O)N1CCC[C@H]1C(=O)N1CCC[C@H]1C(=O)N1CCC[C@H]1C(=O)N[C@@H](CO)C(N)=O [Compound 2] (H-Y[Aib]EGTFTSDYSYYLEK([εLys-εLys-γGlu-C20 diacid])QAAQEFVNWLLAGGPSSGAPPPS-NH2) | 0.0038 | 0.275 | 0.006 | 0.9
